Measured values published in the NIST ThermoML archive (doi:10.1021/je060116w).

Settings: Hot wire method

FC(F)CC(F)(F)F [1,1,1,3,3-pentafluoropropane]
Liquid
Settings | thermal conductivity [W/m/K]
244.4 K | 0.1044
244.64 K | 0.1043
244.9 K | 0.1041
254.41 K | 0.1014
254.67 K | 0.1014
254.94 K | 0.1013
264.37 K | 0.09835
264.64 K | 0.0982
264.91 K | 0.0981
274.38 K | 0.09519
274.66 K | 0.09525
274.94 K | 0.09497
284.51 K | 0.09219
284.8 K | 0.09211
285.08 K | 0.09178
294.42 K | 0.08894
294.67 K | 0.08895
294.99 K | 0.08862
304.46 K | 0.08598
304.72 K | 0.08564
305.08 K | 0.08542
314.17 K | 0.0826
314.45 K | 0.08276
314.53 K | 0.08259
314.76 K | 0.08269
314.8 K | 0.08262
315.13 K | 0.08252
315.17 K | 0.08234
324.46 K | 0.0795
324.78 K | 0.07945
325.15 K | 0.07953
334.52 K | 0.07649
334.84 K | 0.0765
335.21 K | 0.0765
344.59 K | 0.07365
344.93 K | 0.07351
345.31 K | 0.07356
354.66 K | 0.07059
355 K | 0.07059
355.37 K | 0.07058
364.67 K | 0.06648
365.04 K | 0.06636
365.43 K | 0.06604
374.69 K | 0.06371

Gas
Settings | thermal conductivity [W/m/K]
296.14 K, 121.3 kPa | 0.01256
297.06 K, 121.3 kPa | 0.01257
297.76 K, 121.3 kPa | 0.01267
305.45 K, 123.2 kPa | 0.01342
305.99 K, 123.2 kPa | 0.01345
306.63 K, 123.2 kPa | 0.01352
315.24 K, 203.4 kPa | 0.01425
315.99 K, 203.4 kPa | 0.01428
316.55 K, 203.4 kPa | 0.01435
325.29 K, 203.3 kPa | 0.0152
326.02 K, 203.3 kPa | 0.01524
326.56 K, 203.3 kPa | 0.01527
335.28 K, 291.6 kPa | 0.01607
335.96 K, 291.6 kPa | 0.0161
336.77 K, 291.6 kPa | 0.01611
345.15 K, 303 kPa | 0.01704
345.77 K, 303 kPa | 0.0171
346.5 K, 303 kPa | 0.01714
354.97 K, 738.2 kPa | 0.01782
355.04 K, 579.7 kPa | 0.01778
355.53 K, 738.2 kPa | 0.01786
355.63 K, 579.7 kPa | 0.01782
356.17 K, 738.2 kPa | 0.0179
356.29 K, 579.7 kPa | 0.01791
364.88 K, 954.5 kPa | 0.01876
365.05 K, 617.9 kPa | 0.01865
365.4 K, 954.5 kPa | 0.01875
365.61 K, 617.9 kPa | 0.01873
365.96 K, 954.5 kPa | 0.0189
366.24 K, 617.9 kPa | 0.01878
